# How the values were obtained:
# Test in all cases: KiNativ chemical proteomics profiling in HeLa and PC3 cell lysates
# [1] = biological target: T1, selected panels of kinases in HeLa and PC3 cell lysates (Homo sapiens, UniProt Q13523); type: binding; conditions: 10 uM; PRP4; peptide […]k[…]; proteome PC3; labeling site Lys2
# T1 construct: endogenous in cells; host or cells: HeLa and PC3 cell lysates
# [2] = test system: selected panels of kinases in HeLa and PC3 cell lysates; type: binding, human; conditions: 10 uM; for % Inhibition PI4KA,PI4KAP2: peptide SGTPMQSAAkAPYLAK, labeling site ATP; for % Inhibiton, MAP3K2,MAP3K3: peptide DIkGANILR; for % Inhibiton, IKKe,TBK1: peptide DIkPGNIMR; for % Inhibiton, JNK1,JNK2,JNK3: peptide DLkPSNIVVK; for % Inhibiton, MAP2K1,MAP2K2: peptide DVkPSNILVNSR
# [3] = biological target: T2, selected panels of kinases in HeLa and PC3 cell lysates (Homo sapiens, UniProt P52564); type: binding; conditions: 10 uM
# T2 construct: endogenous in cells; host or cells: HeLa and PC3 cell lysates
# T2 sequence (P52564 1-334): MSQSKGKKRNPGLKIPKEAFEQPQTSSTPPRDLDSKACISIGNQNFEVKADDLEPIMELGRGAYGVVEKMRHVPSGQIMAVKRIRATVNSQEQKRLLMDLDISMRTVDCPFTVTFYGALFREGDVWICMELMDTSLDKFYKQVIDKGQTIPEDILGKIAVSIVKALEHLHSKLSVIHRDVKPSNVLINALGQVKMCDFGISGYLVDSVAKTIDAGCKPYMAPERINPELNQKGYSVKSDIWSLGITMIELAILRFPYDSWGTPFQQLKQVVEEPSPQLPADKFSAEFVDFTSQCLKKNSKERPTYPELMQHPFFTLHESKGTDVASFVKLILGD
# [4] = biological target: T3, selected panels of kinases in HeLa and PC3 cell lysates (Homo sapiens, UniProt Q15131); type: binding; conditions: 10 uM; proteome PC3; peptide DLkVSNLLMTDK; labeling site Lys2
# T3 construct: endogenous in cells; host or cells: HeLa and PC3 cell lysates
# [5] = biological target: T4, selected panels of kinases in HeLa and PC3 cell lysates (Homo sapiens, UniProt Q16512); type: binding; conditions: 10 uM; PKN1; peptide GHFGk[…]; proteome HEL; labeling site Lys1
# T4 construct: endogenous in cells; host or cells: HeLa and PC3 cell lysates
# [6] = biological target: T5, selected panels of kinases in HeLa and PC3 cell lysates (Homo sapiens, UniProt Q9P2K8); type: binding; conditions: 10 uM
# T5 construct: endogenous in cells; host or cells: HeLa and PC3 cell lysates
# [7] = biological target: T6, selected panels of kinases in HeLa and PC3 cell lysates (Homo sapiens, UniProt Q9Y4K4); type: binding; conditions: 10 uM; proteome PC3; peptide […]kIIK; labeling site Lys1
# T6 construct: endogenous in cells; host or cells: HeLa and PC3 cell lysates
# [8] = biological target: T7, selected panels of kinases in HeLa and PC3 cell lysates (Homo sapiens, UniProt O75385); type: binding; conditions: 10 uM; ULK1; peptide DLk[…]; proteome HEL; labeling site Lys2
# T7 construct: endogenous in cells; host or cells: HeLa and PC3 cell lysates
# [9] = biological target: T8, selected panels of kinases in HeLa and PC3 cell lysates (Homo sapiens, UniProt Q92918); type: binding; conditions: 10 uM; proteome HEL; peptide […]kMVK; labeling site Lys1
# T8 construct: endogenous in cells; host or cells: HeLa and PC3 cell lysates
# [10] = biological target: T9, selected panels of kinases in HeLa and PC3 cell lysates (Homo sapiens, UniProt Q15759); type: binding; conditions: 10 uM; proteome PC3; peptide QELNkTVWEVPQR; labeling site Other
# T9 construct: endogenous in cells; host or cells: HeLa and PC3 cell lysates
# [11] = biological target: T10, selected panels of kinases in HeLa and PC3 cell lysates (Homo sapiens, UniProt Q13164); type: binding
# T10 construct: endogenous in cells; host or cells: HeLa and PC3 cell lysates
# [12] = biological target: T11, selected panels of kinases in HeLa and PC3 cell lysates (Homo sapiens, UniProt O75716); type: binding; conditions: 10 uM, peptide DLk[…], labeling site Lys2
# T11 construct: endogenous in cells; host or cells: HeLa and PC3 cell lysates
# [13] = biological target: T12, selected panels of kinases in HeLa and PC3 cell lysates (Homo sapiens, UniProt Q14164); type: binding; conditions: 10 uM; proteome HEL; peptide SGELVAVk[…]; labeling site Lys1
# T12 construct: endogenous in cells; host or cells: HeLa and PC3 cell lysates
# [14] = biological target: T13, selected panels of kinases in HeLa and PC3 cell lysates (Homo sapiens, UniProt P21127); type: binding; conditions: 10 uM; PITSLRE; peptide DLk[…]; proteome PC3; labeling site Lys2
# T13 construct: endogenous in cells; host or cells: HeLa and PC3 cell lysates
# [15] = biological target: T14, selected panels of kinases in HeLa and PC3 cell lysates (Homo sapiens, UniProt O00418); type: binding; conditions: 10 uM, peptide YIkYNSNSGFVR, labeling site Protein Kinase Domain
# T14 construct: endogenous in cells; host or cells: HeLa and PC3 cell lysates
# [16] = biological target: T15, selected panels of kinases in HeLa and PC3 cell lysates (Homo sapiens, UniProt P15735); type: binding; conditions: 10 uM; PHKg2; peptide ATGHEFAVkIMEVTAER; proteome PC3; labeling site Lys1
# T15 construct: endogenous in cells; host or cells: HeLa and PC3 cell lysates
# [17] = peptide DIk[…], proteome HEL, labeling site Lys2
# [18] = peptide DIk[…], proteome PC3, labeling site Lys2
# [19] = proteome HEL, labeling site Lys2
# [20] = proteome HEL, peptide DLk[…], labeling site Lys2
# [21] = proteome HEL, peptide DVk[…], labeling site Lys2
# [22] = proteome PC3, labeling site Lys2
# [23] = proteome PC3, peptide DIk[…], labeling site Lys2
# [24] = proteome PC3, peptide DLk[…], labeling site Lys2
# [25] = proteome PC3, peptide DVk[…], labeling site Lys2
# T5 sequence (Q9P2K8 whole entry): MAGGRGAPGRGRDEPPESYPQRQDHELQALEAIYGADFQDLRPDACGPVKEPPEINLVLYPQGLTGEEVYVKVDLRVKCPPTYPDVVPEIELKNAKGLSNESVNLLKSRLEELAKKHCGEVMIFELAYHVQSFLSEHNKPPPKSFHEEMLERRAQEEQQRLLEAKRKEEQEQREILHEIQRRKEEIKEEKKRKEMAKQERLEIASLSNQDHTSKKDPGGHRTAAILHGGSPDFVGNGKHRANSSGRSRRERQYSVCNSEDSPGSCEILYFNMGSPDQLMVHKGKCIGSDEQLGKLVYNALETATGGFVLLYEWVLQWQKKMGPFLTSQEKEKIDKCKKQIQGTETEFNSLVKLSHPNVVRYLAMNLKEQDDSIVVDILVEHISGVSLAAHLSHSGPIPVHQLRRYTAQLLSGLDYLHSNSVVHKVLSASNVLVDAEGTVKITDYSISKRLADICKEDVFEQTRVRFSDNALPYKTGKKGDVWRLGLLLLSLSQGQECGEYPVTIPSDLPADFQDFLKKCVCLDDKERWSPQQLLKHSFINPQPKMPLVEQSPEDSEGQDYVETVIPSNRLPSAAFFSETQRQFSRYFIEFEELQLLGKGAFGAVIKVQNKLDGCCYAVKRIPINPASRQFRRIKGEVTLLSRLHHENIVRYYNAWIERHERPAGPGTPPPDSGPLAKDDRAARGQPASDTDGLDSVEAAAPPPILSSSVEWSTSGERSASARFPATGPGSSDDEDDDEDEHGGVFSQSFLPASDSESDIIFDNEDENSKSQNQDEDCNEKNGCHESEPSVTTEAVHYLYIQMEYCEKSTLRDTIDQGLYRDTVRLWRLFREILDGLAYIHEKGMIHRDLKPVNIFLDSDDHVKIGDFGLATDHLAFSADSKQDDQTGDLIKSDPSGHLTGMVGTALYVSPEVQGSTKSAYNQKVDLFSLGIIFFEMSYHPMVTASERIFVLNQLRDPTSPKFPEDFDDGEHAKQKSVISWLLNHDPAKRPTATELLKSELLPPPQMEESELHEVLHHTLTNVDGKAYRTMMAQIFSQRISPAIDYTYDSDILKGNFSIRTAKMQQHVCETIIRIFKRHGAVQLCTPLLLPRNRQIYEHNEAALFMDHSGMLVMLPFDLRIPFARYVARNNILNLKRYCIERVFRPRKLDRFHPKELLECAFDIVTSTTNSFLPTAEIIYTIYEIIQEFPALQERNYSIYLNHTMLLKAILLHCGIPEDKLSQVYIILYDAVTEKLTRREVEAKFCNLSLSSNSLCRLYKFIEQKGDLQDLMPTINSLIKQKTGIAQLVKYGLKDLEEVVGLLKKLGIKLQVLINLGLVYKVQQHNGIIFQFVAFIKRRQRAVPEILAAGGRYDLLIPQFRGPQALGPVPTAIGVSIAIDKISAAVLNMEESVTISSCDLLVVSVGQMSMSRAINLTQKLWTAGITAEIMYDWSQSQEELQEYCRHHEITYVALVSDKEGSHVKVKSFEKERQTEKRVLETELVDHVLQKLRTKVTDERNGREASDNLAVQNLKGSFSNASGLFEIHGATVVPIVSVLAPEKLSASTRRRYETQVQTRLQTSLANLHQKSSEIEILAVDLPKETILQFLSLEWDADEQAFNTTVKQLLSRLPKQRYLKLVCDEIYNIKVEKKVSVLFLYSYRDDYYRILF
# T10 sequence (Q13164 whole entry): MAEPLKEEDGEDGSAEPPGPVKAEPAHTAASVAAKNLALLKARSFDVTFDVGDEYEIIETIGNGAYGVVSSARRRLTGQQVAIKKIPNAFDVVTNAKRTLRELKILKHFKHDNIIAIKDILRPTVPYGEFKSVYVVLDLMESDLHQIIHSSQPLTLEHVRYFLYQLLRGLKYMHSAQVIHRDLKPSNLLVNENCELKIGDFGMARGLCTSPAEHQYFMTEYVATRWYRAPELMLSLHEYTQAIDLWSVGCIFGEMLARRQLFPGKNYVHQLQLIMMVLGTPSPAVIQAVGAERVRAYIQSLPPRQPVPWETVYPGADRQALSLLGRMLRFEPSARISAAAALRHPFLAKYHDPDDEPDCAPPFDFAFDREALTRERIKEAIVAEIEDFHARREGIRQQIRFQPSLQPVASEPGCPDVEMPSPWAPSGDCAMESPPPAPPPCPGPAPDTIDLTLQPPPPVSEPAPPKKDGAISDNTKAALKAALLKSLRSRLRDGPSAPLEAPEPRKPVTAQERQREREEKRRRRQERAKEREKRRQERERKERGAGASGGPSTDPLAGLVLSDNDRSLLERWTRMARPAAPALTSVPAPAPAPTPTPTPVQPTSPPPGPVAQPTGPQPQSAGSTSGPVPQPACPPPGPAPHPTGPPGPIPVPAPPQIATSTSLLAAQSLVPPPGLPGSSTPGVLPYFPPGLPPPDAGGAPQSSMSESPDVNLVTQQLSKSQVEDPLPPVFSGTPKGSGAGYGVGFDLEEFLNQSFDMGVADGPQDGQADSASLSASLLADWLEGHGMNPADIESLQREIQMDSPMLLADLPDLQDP
# T14 sequence (O00418 whole entry, the tested form may be a part): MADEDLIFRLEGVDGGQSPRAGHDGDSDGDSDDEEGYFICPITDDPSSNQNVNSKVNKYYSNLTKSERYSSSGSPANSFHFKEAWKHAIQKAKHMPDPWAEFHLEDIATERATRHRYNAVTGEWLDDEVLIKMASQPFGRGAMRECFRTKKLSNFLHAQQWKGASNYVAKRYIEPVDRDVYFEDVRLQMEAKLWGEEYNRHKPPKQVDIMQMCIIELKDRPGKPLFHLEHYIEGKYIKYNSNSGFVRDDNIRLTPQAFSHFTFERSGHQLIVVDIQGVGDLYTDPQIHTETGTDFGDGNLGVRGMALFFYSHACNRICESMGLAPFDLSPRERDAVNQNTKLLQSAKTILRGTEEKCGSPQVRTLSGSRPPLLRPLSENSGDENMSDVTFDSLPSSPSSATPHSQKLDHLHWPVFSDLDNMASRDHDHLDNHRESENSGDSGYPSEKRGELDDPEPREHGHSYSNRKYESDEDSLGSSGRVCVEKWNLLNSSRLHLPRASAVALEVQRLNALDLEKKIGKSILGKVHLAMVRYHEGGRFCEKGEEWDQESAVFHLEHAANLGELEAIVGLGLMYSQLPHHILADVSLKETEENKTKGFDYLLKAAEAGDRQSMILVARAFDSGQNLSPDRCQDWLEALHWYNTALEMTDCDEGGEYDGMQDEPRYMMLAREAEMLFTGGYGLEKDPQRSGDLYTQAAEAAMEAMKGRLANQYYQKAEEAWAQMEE
# T11 sequence (O75716 whole entry): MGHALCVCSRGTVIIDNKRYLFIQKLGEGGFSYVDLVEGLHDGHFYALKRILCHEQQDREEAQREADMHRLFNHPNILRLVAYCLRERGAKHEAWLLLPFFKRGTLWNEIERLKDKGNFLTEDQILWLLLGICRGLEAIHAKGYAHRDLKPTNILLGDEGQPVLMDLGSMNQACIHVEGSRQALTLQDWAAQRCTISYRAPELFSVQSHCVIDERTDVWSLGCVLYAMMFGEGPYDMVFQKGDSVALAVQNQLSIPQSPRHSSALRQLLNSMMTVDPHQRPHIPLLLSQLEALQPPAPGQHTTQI
# T6 sequence (Q9Y4K4 whole entry): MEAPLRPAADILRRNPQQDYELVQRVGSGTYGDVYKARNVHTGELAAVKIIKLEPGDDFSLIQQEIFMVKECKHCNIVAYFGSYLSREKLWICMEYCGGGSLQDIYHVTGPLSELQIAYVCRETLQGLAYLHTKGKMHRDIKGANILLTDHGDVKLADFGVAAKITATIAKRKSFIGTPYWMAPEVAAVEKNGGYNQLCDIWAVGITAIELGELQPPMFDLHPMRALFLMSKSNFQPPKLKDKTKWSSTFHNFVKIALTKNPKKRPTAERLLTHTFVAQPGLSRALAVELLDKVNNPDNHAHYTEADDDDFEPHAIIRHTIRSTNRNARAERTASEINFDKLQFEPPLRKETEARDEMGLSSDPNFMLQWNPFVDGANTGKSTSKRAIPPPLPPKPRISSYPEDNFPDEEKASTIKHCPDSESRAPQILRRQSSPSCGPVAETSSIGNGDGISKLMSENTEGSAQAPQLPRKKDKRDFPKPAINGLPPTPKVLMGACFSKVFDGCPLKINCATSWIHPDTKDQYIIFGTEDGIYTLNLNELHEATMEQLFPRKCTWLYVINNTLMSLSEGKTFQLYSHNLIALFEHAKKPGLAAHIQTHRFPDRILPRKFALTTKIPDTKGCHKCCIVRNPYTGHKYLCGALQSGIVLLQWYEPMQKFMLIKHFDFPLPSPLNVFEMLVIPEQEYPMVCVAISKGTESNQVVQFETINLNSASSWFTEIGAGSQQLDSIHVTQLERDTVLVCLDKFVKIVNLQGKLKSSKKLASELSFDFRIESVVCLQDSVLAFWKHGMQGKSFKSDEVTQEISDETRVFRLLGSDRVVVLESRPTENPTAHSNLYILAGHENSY
# T15 sequence (P15735 whole entry): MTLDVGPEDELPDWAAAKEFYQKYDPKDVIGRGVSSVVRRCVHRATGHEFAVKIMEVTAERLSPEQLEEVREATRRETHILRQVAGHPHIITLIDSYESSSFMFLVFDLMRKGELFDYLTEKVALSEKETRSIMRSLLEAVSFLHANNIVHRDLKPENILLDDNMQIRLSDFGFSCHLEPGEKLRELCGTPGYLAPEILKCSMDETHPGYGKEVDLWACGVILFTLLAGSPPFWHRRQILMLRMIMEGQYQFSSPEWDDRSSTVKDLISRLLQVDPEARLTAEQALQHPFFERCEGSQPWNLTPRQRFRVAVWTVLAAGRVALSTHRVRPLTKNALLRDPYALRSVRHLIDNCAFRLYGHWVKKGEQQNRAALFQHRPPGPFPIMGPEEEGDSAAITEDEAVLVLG
smiles,measurement,setting,value
"COc1cc(C(=O)N2CCC(N3CCN(C)CC3)CC2)ccc1Nc1ncc2c(n1)N(C1CCCC1)c1ccccc1C(=O)N2C [Compound 25, 11-cyclopentyl-2-((2-methoxy-4-(4-(4-methylpiperazin-1-yl)piperidine-1-carbonyl)phenyl)amino)-5-methyl-5H-benzo[e]pyrimido[5,4-b][1,4]diazepin-6(11H)-one]",% Inhibition PRP4,[1],-11.9%
same,"% Inhibition PI4KA,PI4KAP2",[2]; proteome HEL,23.7%
same,"% Inhibition PI4KA,PI4KAP2",[2]; proteome PC3,-7.2%
same,"% Inhibition PKCa,PKCb","[2]; PKCa,PKCb, peptide DLk[…], proteome PC3, labeling site Lys2",16.4%
same,"% Inhibition PKD1,PKD2","[2]; PKD1,PKD2, peptide NIVHCDLk[…], proteome HEL, labeling site Lys2",-30.1%
same,"% Inhibition ROCK1,ROCK2","[2]; ROCK1,ROCK2, peptide DVkPDNMLLDK, proteome PC3, labeling site Lys2",5.7%
same,"% Inhibition RSK1,RSK2 domain1","[2]; RSK1,RSK2 domain1, peptide DLk[…], proteome HEL, labeling site Lys2",-6.2%
same,"% Inhibition RSK1,RSK4 domain1","[2]; RSK1,RSK4 domain1, peptide VLGQGSFGkVFLVR, proteome HEL, labeling site ATP Loop",-4.9%
same,"% Inhibition SRPK1,SRPK2","[2]; SRPK1,SRPK2, peptide FVAMkVVK, proteome PC3, labeling site Lys1",-2.0%
same,"% Inhibition TAO1,TAO3",[2]; [17],21.0%
same,"% Inhibition TAO1,TAO3",[2]; [18],-5.2%
same,"% Inhibition Wnk1,Wnk2,Wnk3","[2]; Wnk1,Wnk2,Wnk3, peptide DLk[…], proteome HEL, labeling site Lys2",9.6%
same,"% Inhibition Wnk1,Wnk2,Wnk4","[2]; Wnk1,Wnk2,Wnk4, peptide IGDLGLATLkR, proteome PC3, labeling site Activation Loop",-9.4%
same,"% Inhibition ZC1/HGK,ZC2/TNIK,ZC3/MINK",[2]; [17],10.0%
same,"% Inhibition ZC1/HGK,ZC2/TNIK,ZC3/MINK",[2]; [18],-6.5%
same,"% Inhibition p70S6K,p70S6Kb","[2]; p70S6K,p70S6Kb, peptide GGYGkVFQVR, proteome PC3, labeling site ATP Loop",-1.5%
same,"% Inhibiton, MAP3K2,MAP3K3",[2]; [19],14.4%
same,"% Inhibiton, IKKe,TBK1",[2]; [19],18.2%
same,"% Inhibiton, NEK6,NEK7","[2]; proteome HEL, peptide DIk[…], labeling site Lys2",6.9%
same,"% Inhibiton, JNK1,JNK2,JNK3",[2]; [19],33.5%
same,"% Inhibiton, AMPKa1,AMPKa2",[2]; [20],9.6%
same,"% Inhibiton, MARK2,MARK3",[2]; [20],9.5%
same,"% Inhibiton, MAST2,MAST4",[2]; [20],28.2%
same,"% Inhibiton, p38d,p38g",[2]; [20],12.3%
same,"% Inhibiton, MAP2K1,MAP2K2",[2]; [19],-0.9%
same,"% Inhibiton, MYO3A,MYO3B",[2]; [21],-3.3%
same,"% Inhibiton, BMX,BTK","[2]; proteome HEL, peptide GQYDVAIkMIK, labeling site Lys1",~43.0%
same,"% Inhibiton, MAP3K5,MAP3K6,MAP3K7","[2]; proteome HEL, peptide IAIkEIPERDSR, labeling site Lys1",-4.3%
same,"% Inhibiton, KSR1,KSR2","[2]; proteome HEL, peptide SkNVFYDNGK, labeling site Protein Kinase Domain",6.2%
same,"% Inhibiton, AMPKa1,AMPKa2","[2]; proteome HEL, peptide VAVkILNR, labeling site Lys1",10.9%
same,"% Inhibiton, MSK1,MSK2 domain1","[2]; proteome HEL, peptide VLGTGAYGkVFLVR, labeling site ATP Loop",-9.5%
same,"% Inhibiton, ABL,ARG","[2]; proteome HEL, peptide […]kFPIK, labeling site Activation Loop",17.5%
same,"% Inhibiton, MAP3K2,MAP3K3",[2]; [22],-0.6%
same,"% Inhibiton, IKKe,TBK1",[2]; [22],11.0%
same,"% Inhibiton, MST1,MST2",[2]; [23],8.8%
same,"% Inhibiton, MST4,YSK1",[2]; [23],1.0%
same,"% Inhibiton, NEK6,NEK7",[2]; [23],-5.0%
same,"% Inhibiton, CaMK2a,CaMK2b,CaMK2d,CaMK2g","[2]; proteome PC3, peptide DLkPENLLLASK, labeling site Lys2",-1.1%
same,"% Inhibiton, JNK1,JNK2,JNK3",[2]; [22],30.3%
same,"% Inhibiton, AMPKa1,AMPKa2",[2]; [24],16.4%
same,"% Inhibiton, CDK11,CDK8",[2]; [24],8.9%
same,"% Inhibiton, MARK2,MARK3",[2]; [24],11.6%
same,"% Inhibiton, p38d,p38g",[2]; [24],-6.8%
same,"% Inhibiton, MAP2K1,MAP2K2",[2]; [22],-0.2%
same,"% Inhibiton, CK1d,CK1e",[2]; [25],-16.9%
same,"% Inhibiton, MARK3,MARK4","[2]; proteome PC3, peptide EVAIkIIDK, labeling site Lys1",-5.2%
same,"% Inhibiton, FYN,SRC,YES","[2]; proteome PC3, peptide QGAk[…], labeling site Activation Loop",-32.2%
same,"% Inhibiton, AMPKa1,AMPKa2","[2]; proteome PC3, peptide VAVkILNR, labeling site Lys1",14.9%
same,"% Inhibiton, MAP2K6",[3]; [21],14.2%
same,"% Inhibiton, MAP2K6",[3]; [25],-3.9%
same,"% Inhibiton, MAP2K6","[3]; proteome PC3, peptide […]kR, labeling site Lys1",12.8%
same,"% Inhibiton, CDK10",[4],-11.0%
same,% Inhibition PKN1,[5],-2.7%
same,"% Inhibiton, GCN2","[6]; proteome HEL, peptide LDGCCYAVkR, labeling site Lys1",4.5%
same,"% Inhibiton, GCN2",[6]; [24],-1.6%
same,"% Inhibiton, GCN2","[6]; proteome PC3, peptide LDGCCYAVkR, labeling site Lys1",-1.5%
same,"% Inhibiton, KHS1",[7],-6.6%
same,% Inhibition ULK1,[8],6.4%
same,"% Inhibiton, HPK1",[9],-8.3%
same,"% Inhibiton, p38b",[10],14.5%
same,ERK5 target occupancy (KiNativ),"[11]; 10 μM, HeLa and PC3 cell lysates, only ERK5 exceeded this level",higher than 90%
same,"% Inhibiton, Erk5","[11]; 10 uM, proteome HEL, peptide DLk[…], labeling site Lys2",>95%
same,"% Inhibiton, MPSK1",[12]; proteome HEL,29.5%
same,"% Inhibiton, MPSK1",[12]; proteome PC3,-4.3%
same,"% Inhibiton, IKKe",[13],-20.7%
same,% Inhibition PITSLRE,[14],5.1%
same,"% Inhibiton, eEF2K",[15]; proteome HEL,8.7%
same,"% Inhibiton, eEF2K",[15]; proteome PC3,-9.1%
same,% Inhibition PHKg2,[16],8.1%

# Reference: publication PMC3914206
